Assay results as given in the CheMixHub ionic liquid set.

Assay: xn = mol fraction of the nth substance listed

O=C(CO)[C@@H](O)[C@H](O)[C@@H](O)CO + CCCCCCCCCCCCCCCC[N+](C)(C)C.[Br-] + O
viscosity [mPa·s], 100 kPa
Conditions | 298.15 K | 308.15 K | 318.15 K
x2 = 7.19e-06, x1 = 0.002005 | 0.946 | 0.782 | 0.65
x2 = 7.19e-06, x1 = 0.002298 | 0.954 | 0.788 | 0.655
x2 = 7.19e-06, x1 = 0.002748 | 0.965 | 0.797 | 0.662
x2 = 7.2e-06, x1 = 0.0007582 | 0.915 | 0.757 | 0.629
x2 = 7.2e-06, x1 = 0.001199 | 0.926 | 0.766 | 0.637
x2 = 7.2e-06, x1 = 0.001449 | 0.932 | 0.771 | –
x2 = 1.438e-05, x1 = 0.00232 | 0.96 | 0.793 | 0.658
x2 = 1.438e-05, x1 = 0.002732 | 0.971 | 0.802 | 0.665
x2 = 1.439e-05, x1 = 0.00146 | 0.937 | – | –
x2 = 1.439e-05, x1 = 0.001979 | 0.951 | 0.786 | 0.652
x2 = 1.44e-05, x1 = 0.0008896 | 0.922 | 0.763 | 0.633
x2 = 1.44e-05, x1 = 0.001296 | 0.933 | 0.771 | 0.64
x2 = 2.156e-05, x1 = 0.002717 | 0.975 | 0.805 | 0.667
x2 = 2.157e-05, x1 = 0.002351 | 0.965 | 0.797 | 0.66
x2 = 2.158e-05, x1 = 0.001965 | 0.954 | 0.789 | 0.653
x2 = 2.159e-05, x1 = 0.001383 | 0.938 | 0.776 | 0.642
x2 = 2.159e-05, x1 = 0.001661 | 0.946 | 0.782 | 0.647
x2 = 2.16e-05, x1 = 0.001025 | 0.928 | 0.768 | 0.636

O + CCCCCCCCCCCCCCCC[n+]1ccccc1.O=C([O-])C(O)c1ccccc1
101 kPa, x2 = 0
Conditions | electrical conductivity [S/m]
293.15 K | 0.00012
298.15 K | 0.00015
303.15 K | 0.00016
308.15 K | 0.00017
313.15 K | 0.00019

O + CCCCCCCCCCCCCCCC[n+]1ccccc1.O=C([O-])C(O)c1ccccc1 + CC(C)C[C@H](N)C(=O)O
101 kPa, x2 = 0, x3 = 0
Conditions | electrical conductivity [S/m]
293.15 K | 0.00012
298.15 K | 0.00015
303.15 K | 0.00016
308.15 K | 0.00017
313.15 K | 0.00019

O + CCCCCCCCCCCCCCCC[n+]1ccccc1.O=C([O-])C(O)c1ccccc1 + CC(C)[C@H](N)C(=O)O
101 kPa, x2 = 0, x3 = 0
Conditions | electrical conductivity [S/m]
293.15 K | 0.00012
298.15 K | 0.00015
303.15 K | 0.00016
308.15 K | 0.00017
313.15 K | 0.00019

O + CCCCCCCCCCCCCCCC[n+]1ccccc1.O=C([O-])C(O)c1ccccc1 + C[C@H](N)C(=O)O
101 kPa, x2 = 0, x3 = 0
Conditions | electrical conductivity [S/m]
293.15 K | 0.00012
298.15 K | 0.00015
303.15 K | 0.00016
308.15 K | 0.00017
313.15 K | 0.00019

O + CCCCCCCCCCCCCCCC[n+]1ccccc1.O=C([O-])C(O)c1ccccc1 + NCC(=O)NCC(=O)O
101 kPa, x2 = 0, x3 = 0
Conditions | electrical conductivity [S/m]
293.15 K | 0.00012
298.15 K | 0.00015
303.15 K | 0.00016
308.15 K | 0.00017
313.15 K | 0.00019

O + CCCCCCCCCCCCCCCC[n+]1ccccc1.O=C([O-])C(O)c1ccccc1 + NCC(=O)O
101 kPa, x2 = 0, x3 = 0
Conditions | electrical conductivity [S/m]
293.15 K | 0.00012
298.15 K | 0.00015
303.15 K | 0.00016
308.15 K | 0.00017
313.15 K | 0.00019

O + CCCCCCCCCCCCCCCC[n+]1ccccc1.O=C([O-])c1ccccc1O
101 kPa, x2 = 0
Conditions | electrical conductivity [S/m]
293.15 K | 0.000135
298.15 K | 0.000158
303.15 K | 0.000178
308.15 K | 0.000197
313.15 K | 0.000246

O + CCCCCCCCCCCCCCCC[n+]1ccccc1.[Cl-]
Conditions | electrical conductivity [S/m]
308.15 K, 101 kPa, x2 = 0 | 6.7e-05

C[C@H](N)C(=O)O + CCCCCCCCCCCCCCCC[n+]1ccccc1.[Cl-] + O
308.15 K, 101 kPa
Conditions | electrical conductivity [S/m]
x1 = 2.018e-05, x2 = 0 | 0.00076
x1 = 2.252e-05, x2 = 0 | 5.6e-05
x1 = 0.0009272, x2 = 0 | 7.5e-05
x1 = 0.001838, x2 = 0 | 0.000251

CCC[N+]1(C)CCCC1.O=S(=O)([N-]S(=O)(=O)C(F)(F)F)C(F)(F)F + CCCCCCCCCCCCCC[P+](CCCCCC)(CCCCCC)CCCCCC.O=S(=O)([N-]S(=O)(=O)C(F)(F)F)C(F)(F)F
313.15 K, 101 kPa, x2 = 0.75
Conditions | electrical conductivity [S/m] | viscosity [mPa·s]
– | 0.0308 | 135

O + CCCCCCCCCCCCCC[n+]1ccccc1.O=C([O-])C(O)c1ccccc1
101 kPa, x2 = 0
Conditions | electrical conductivity [S/m]
293.15 K | 0.00012
298.15 K | 0.00015
303.15 K | 0.00016
308.15 K | 0.00017
313.15 K | 0.00019

O + CCCCCCCCCCCCCC[n+]1ccccc1.O=C([O-])C(O)c1ccccc1 + CC(C)C[C@H](N)C(=O)O
101 kPa, x2 = 0, x3 = 0
Conditions | electrical conductivity [S/m]
293.15 K | 0.00012
298.15 K | 0.00015
303.15 K | 0.00016
308.15 K | 0.00017
313.15 K | 0.00019

O + CCCCCCCCCCCCCC[n+]1ccccc1.O=C([O-])C(O)c1ccccc1 + CC(C)[C@H](N)C(=O)O
101 kPa, x2 = 0, x3 = 0
Conditions | electrical conductivity [S/m]
293.15 K | 0.00012
298.15 K | 0.00015
303.15 K | 0.00016
308.15 K | 0.00017
313.15 K | 0.00019

O + CCCCCCCCCCCCCC[n+]1ccccc1.O=C([O-])C(O)c1ccccc1 + C[C@H](N)C(=O)O
101 kPa, x2 = 0, x3 = 0
Conditions | electrical conductivity [S/m]
293.15 K | 0.00012
298.15 K | 0.00015
303.15 K | 0.00016
308.15 K | 0.00017
313.15 K | 0.00019

O + CCCCCCCCCCCCCC[n+]1ccccc1.O=C([O-])C(O)c1ccccc1 + NCC(=O)NCC(=O)O
101 kPa, x2 = 0, x3 = 0
Conditions | electrical conductivity [S/m]
293.15 K | 0.00012
298.15 K | 0.00015
303.15 K | 0.00016
308.15 K | 0.00017
313.15 K | 0.00019

O + CCCCCCCCCCCCCC[n+]1ccccc1.O=C([O-])C(O)c1ccccc1 + NCC(=O)O
101 kPa, x2 = 0, x3 = 0
Conditions | electrical conductivity [S/m]
293.15 K | 0.00012
298.15 K | 0.00015
303.15 K | 0.00016
308.15 K | 0.00017
313.15 K | 0.00019

O + CCCCCCCCCCCCCCn1cc[n+](C)c1.[Br-] + CC[N+](CC)(CC)CC.[Br-]
101 kPa, frequency 0.001 MHz, x2 = 0, x3 = 0
Conditions | electrical conductivity [S/m]
298.15 K | 0.00046
308.15 K | 0.00115
318.15 K | 0.00157

O + CCCCCCCCCCCCOS(=O)(=O)[O-].[Na+] + CCCCCCCCCCCCCCCC[N+](C)(C)C.[Br-]
Conditions | electrical conductivity [S/m]
298.15 K, 101 kPa, frequency 0.001 MHz, x2 = 0, x3 = 0 | 0.000321
